Laboratory results as given in paper PMC8231504, “A Biophysical Insight of Camptothecin Biodistribution: Towards a Molecular Understanding of Its Pharmacokinetic Issues” (Pharmaceutics, 2021).
Read-outs that look alike come from different tables or passages of the source.

Assays:
[1] = set-up: method as in doi:10.1021/jp035260s; details: DOPG, pH 7.4, fluorescence anisotropy; ref [47]; cited from earlier work
[2] = set-up: method as in doi:10.1021/jp035260s; details: DOPC, pH 7.4, fluorescence anisotropy; ref [47]; cited from earlier work
[3] = fluorescence spectroscopy, ref [18],[47],[48] (table), [18],[49],[50]; cited from earlier work
BSA = test system: BSA; set-up: method as in Li et al. [17]; details: ref Li et al. [17]; cited from earlier work
[4] = Distribution coefficient in membrane/aqueous system, BBB membrane model; format: physicochemical; details: BBB endothelial membrane, pH 7.4, derivative spectroscopy
Text: Single-lipid liposomal membrane models composed of DMPC, or lipid mixture liposomal membrane models mimetic of breast cancer cell membrane—DOPC (25%), CHOL (15%), EPC (31.8%), DOPS (17%), DOPE (8%), cardiolipin (2.5%) and SM (0.7%)—mimetic of cell membrane—DOPC (45%), DOPE (20%), DOPS (20%), CHOL (10%), and SM (10%)—and, blood–brain barrier (BBB) membrane constituted by the BPL—phosphocholine (PC) (12.6%), phosphatidyl ethanolamine (PE) (33.1%), PI (4.1%), phosphatidyl serine (PS) (18.5%), and PA (0.8%) were prepared by the classical thin film hydration method. […]
The distribution coefficient (LogD) of CPT between membrane and aqueous buffered solution (pH 5.8 for breast cancer cell membrane model and pH 7.4 for cell membrane model and BBB membrane model) was determined by fluorescence spectroscopy and derivative UV-Vis spectroscopy. […] The samples contained a fixed concentration of CPT (2 × 10^−5M) and increasing concentrations of lipid suspension (0 to 1 × 10^−3 M for absorbance or 3 × 10^−3 M for fluorescence). […] The fluorescence spectra were also measured on a Perkin-Elmer LS-50B spectrofluorimeter. The emission spectra were obtained in 380–480 nm range with λexcitation = 250 nm and the excitation spectra were recorded in 220–400 nm range with λemission = 430 nm. […]

[5] = set-up: method as in PMID 22520977; details: after 2 h in contact with human blood; ref [3]; cited from earlier work
[6] = Distribution coefficient in membrane/aqueous system, cancer cell membrane model; format: physicochemical; details: for LogD: cancer cells membranes, 37 °C
Text: (§1) Single-lipid liposomal membrane models composed of DMPC, or lipid mixture liposomal membrane models mimetic of breast cancer cell membrane—DOPC (25%), CHOL (15%), EPC (31.8%), DOPS (17%), DOPE (8%), cardiolipin (2.5%) and SM (0.7%)—mimetic of cell membrane—[…], DOPE (20%), DOPS (20%), CHOL (10%), and SM (10%)—and, blood–brain barrier (BBB) membrane constituted by the BPL—phosphocholine (PC) (12.6%), phosphatidyl ethanolamine (PE) (33.1%), PI (4.1%), phosphatidyl serine (PS) (18.5%), and PA (0.8%) were prepared by the classical thin film hydration method. Briefly, lipids were co-dissolved in chloroform:methanol (8:2, v/v) and the solvents were evaporated under a stream of nitrogen in a rotary evaporator (Buchi R-200; Sigma-Aldrich Corp., Buchs, Switzerland). The resultant dried lipid film was hydrated with buffer at temperature of 40 ± 0.1 °C and lipid colloidal dispersions were formed by alternating vortex and thermostatic bath (40 ± 0.1 °C). […]
(§2) The distribution coefficient (LogD) of CPT between membrane and aqueous buffered solution (pH 5.8 for breast cancer cell membrane model and pH 7.4 for cell membrane model and BBB membrane model) was determined by fluorescence spectroscopy and derivative UV-Vis spectroscopy. […] The samples contained a fixed concentration of CPT (2 × 10^−5M) and increasing concentrations of lipid suspension (0 to 1 × 10^−3 M for absorbance or 3 × 10^−3 M for fluorescence). […] The fluorescence spectra were also measured on a Perkin-Elmer LS-50B spectrofluorimeter. The emission spectra were obtained in 380–480 nm range with λexcitation = 250 nm and the excitation spectra were recorded in 220–400 nm range with λemission = 430 nm. […] The second and third derivative spectra of the absorbance UV-Vis spectra were determined to improve the resolution of spectral bands and to eliminate the spectral interferences due to light scattered by the lipid suspensions. […]
(§3) Because CPT is a fluorescent compound with spectral variations due to its distribution between the lipid/aqueous phases (e.g., λ shifts), logD of CPT can also be calculated using fluorescence spectroscopy. […]

[7] = set-up: method as in PMID 30654016; details: at lower concentrations (5 µM); ref [38]; cited from earlier work
HSA [8] = biological target: HSA (Homo sapiens, UniProt P02768); assay: Plasma protein binding by steady-state fluorescence quenching
HSA (Homo sapiens, UniProt P02768), sequence (P02768 25-609): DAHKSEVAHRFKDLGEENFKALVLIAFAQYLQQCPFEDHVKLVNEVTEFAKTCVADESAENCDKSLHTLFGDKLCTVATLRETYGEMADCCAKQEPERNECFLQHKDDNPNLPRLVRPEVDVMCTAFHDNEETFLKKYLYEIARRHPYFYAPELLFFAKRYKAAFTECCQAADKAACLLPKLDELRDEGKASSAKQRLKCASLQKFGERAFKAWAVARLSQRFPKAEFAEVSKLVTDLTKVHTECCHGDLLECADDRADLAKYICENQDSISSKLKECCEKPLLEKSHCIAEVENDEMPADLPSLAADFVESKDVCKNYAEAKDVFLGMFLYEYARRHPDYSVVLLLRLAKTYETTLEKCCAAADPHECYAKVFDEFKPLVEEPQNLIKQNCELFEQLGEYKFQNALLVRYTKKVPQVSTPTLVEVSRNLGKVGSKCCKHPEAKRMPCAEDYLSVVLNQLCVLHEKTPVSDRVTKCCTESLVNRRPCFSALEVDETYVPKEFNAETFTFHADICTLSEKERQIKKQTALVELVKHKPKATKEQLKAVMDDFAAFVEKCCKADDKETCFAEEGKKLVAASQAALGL
Experimental: The fluorescence excitation and emission spectra of increasing CPT concentrations (0 to 3 × 10^−4 M) with a constant HSA concentration (2.0 × 10^−6 M) were acquired at 37.0 ± 0.1 °C (Perkin-Elmer LS-50B spectrofluorimeter, Waltham, USA), with excitation at 280 nm and emission at 342 nm, each with 5 nm slits. The following binding isotherm equation can be used to explain the quenching of HSA fluorescence caused by increasing CPT concentrations:(6) % Quenching=ymáx·n/1+Kdiss/[CPT] where ymax is the maximum fluorescence quenching measured, n is the number of binding sites of HSA to CPT, and Kdiss is the dissociation constant (i.e., the inverse of binding constant, Kbind). In addition, the following equation expresses the relationship between the Kdiss value and the Gibbs free energy ( Δ G) of complex binding:(7) ΔGbind=[…] where R is the ideal gas constant and T is the temperature in Kelvin (K).

[9] = Literature in vivo steady-state volume of distribution; details: human, converted from 190 ± 46 L·m^−2 with body surface 1.9 m^2 and body weight 70 kg, ref [71], read-out: in vivo VDSS
HSA [10] = assay: Modelling biodistribution using in vitro parameters; set-up: species or system human; details: human, plasma proteins (calculated from in vitro Kbind to HSA); from Kbind to HSA, Equation (14); read-out: PPB (converted)
Experimental: (§4) The logD value obtained can be used with in silico descriptors to predict many biodistribution parameters using mathematical methods. As a result, the value of logD was used to predict CPT bioaccumulation (as expressed by the bioaccumulation constant, Kbioaccumulation), which is associated to tissue blood flow (Q) and its volume (V):(9) Kbioaccumulation=Q/V·logD
(§5) To determine if the drug is stored in adipose tissue, the adipose store index (ASI) of CPT was calculated using the following equation [28]:(10) ASI=1.81·logD−logD+0.40
(§6) Furthermore, the obtained distribution coefficient in the BPL model system—logD(BBB)—can be compared to logBB, according to Waterbeem and Kansy. The logarithm of the ratio of drug concentrations in brain and blood is known as logBB, and it represents the drug’s relative affinity variations between plasma proteins and brain tissue:(11) logBB=0.388·logDBBB−0.00618·Vm+1.359 where Vm is the membrane model system’s molar volume, determined from the individual lipid volumes.
(§7) The steady-state volume distribution (VDSS) is one of the most useful PK criteria for describing a drug’s biodistribution. The effect of the PPB, permeability, partitioning, and active transport on the drug’s physiological distribution is translated by this predictor. Based on human clinical PK evidence of a wide set of drugs (670 drugs), the first physiological statistical model of VDSS for predicting the biodistribution of neutral and basic drugs was proposed:(12) VDSS=VP·(1+RE/L)+fu·VP(VE/VP−RE/L)+VR·fu/fut where VP and VE are the plasma and extracellular fluid volumes with corresponding value in human of […]; RE/I represents the ratio of extravascular and intravascular proteins, and is strictly referred to the distribution of albumin, assuming an approximate value of 1.4; VR is defined as the physical volume into which the drug distributes minus the extracellular space (0.380 L∙Kg^−1); fu and fut are, respectively, the unbound drug fraction in plasma and the unbound fraction in tissues.
(§8) The fu values can be obtained by the following equation [33]:(13) fu=1−PPB/100 where PPB can be obtained from the in vitro values of Kbind:(14) PPB=100/1+1/CP·Kbind where CP is the physiological plasma protein concentration (750 μM).
(§9) Lastly, fut can be obtained by the following equation [32]:(15) logfut=−0.0289−0.1739·logD−0.8324·fi(7.4)+1.0400·logfu where fi(7.4) is the fraction of ionized drug at pH 7.4 which has been calculated considering the pH hydrolysis and conversion of CPT from lactone neutral form to the anionic form carboxylate reported.

[11] = as above; set-up: species or system human; details: for predicted off-target distribution / bioaccumulation: Equation (9)
Experimental: as §4, §5, §6, §7, §8, §9

[12] = set-up: method as in PMID 30869853, PMID 21430952; details: DMPC or DMPG, pH 7.4, fluorescence anisotropy; ref [16],[45],[46]; cited from earlier work
[13] = Distribution coefficient in membrane/aqueous system, normal cell membrane model; format: physicochemical; details: for LogD: normal cells membranes (DOPC, DOPE, DOPS, CHOL, SM)
Text: as §1, §2, §3

C26 colon carcinomas = test system: C26 colon carcinomas; set-up: method as in PMID 18384903; details: 2.5 mg∙Kg^−1 dose of CPT; ref [79]; cited from earlier work

CC[C@@]1(O)C(=O)OCc2c1cc1n(c2=O)Cc2cc3ccccc3nc2-1 [CPT, Camptothecin]
LogD [1]: 1.97 ± 0.05 | LogD [2]: 1.55 ± 0.05 | LogD / logP in octanol:water [3]: 1.73 ± 0.08 | binding constant Kbind with BSA (BSA): 37200 M⁻¹ | LogD [4]: 3.64 ± 0.15 | CPT lactone form remaining [5]: 5% | LogD ([6]; pH 5.8, derivative UV-Vis spectroscopy): 3.14 ± 0.13 ^ns | LogD ([6]; pH 5.8, fluorescence spectroscopy): 3.01 ± 0.31 ^ns | logD in the cancer cell membrane model ([6]; mean of the two methods, pH 5.8): 3.08 ± 0.22 | Papp [7]: 30 ×10⁻⁶ cm/s | Kd (HSA [8]; HSA 2.0 × 10^−6 M, 37 °C, read-out: dissociation constant Kdiss): 65.7 µM | binding constant Kbind (HSA [8]; HSA, 37 °C): 1.52 ± 0.26 × 10^4 M^−1 | number of binding sites n (HSA [8]; HSA, 37 °C): 1 | Gibbs free energy ΔGbind (HSA [8]; HSA, Equation (7)): -5.93 ± 0.10 kcal/mol | Vd [9]: 5.16 ± 1.25 L/kg | fraction unbound (HSA [10]): 0.0805 | adipose storage index (ASI) ([11]; Equation (10), from logD): 2.53 ± 0.12 | LogBB (brain accumulation index) ([11]; Equation (11), from logD in BBB endothelial membrane): 2.76 ± 0.06 | predicted off-target distribution / bioaccumulation ([11]; adrenal glands, from logD in normal cell membrane model): 61.44% | free drug available for distribution to the tissues ([11]; from PPB): 8.05% | predicted off-target distribution / bioaccumulation ([11]; heart): 3.07% | fraction unbound ([11]; human, plasma (calculated from PPB), Equation (13), read-out: unbound fraction in plasma fu): 0.081 | fraction unbound ([11]; human, tissues (predicted), Equation (15), read-out: unbound fraction in tissues fut): 0.0054 | Vd ([11]; human, Equation (12), from in vitro logD and PPB, read-out: VDSS (steady-state volume of distribution)): 5.75 ± 0.932 L/kg | predicted off-target distribution / bioaccumulation ([11]; kidneys): 3.07% | predicted off-target distribution / bioaccumulation ([11]; thyroid): 30.72% | LogD [12]: 2.00 ± 0.16 | average logD ([13]; average over normal and cancer cell membrane models and both methods): 2.89 ± 0.23 | LogD ([13]; pH 7.4, derivative UV-Vis spectroscopy): 2.78 ± 0.28 ^ns | LogD ([13]; pH 7.4, fluorescence spectroscopy): 2.63 ± 0.15 ^ns | AUC (blood plasma) (C26 colon carcinomas): 1100 ng·h/mL
